# Experimental data published in patent US4418064A, “Chemotherapeutically active maytansinoids: treflorine, trenudine, and N-methyltrenudone” (priority 1982, dated 1983).
# How the values were obtained:
# [1] = system: human epidermoid carcinoma of the mouth (KB); assay: cells; conditions: for IC50: Homo sapiens, KB, 72 h, read-out: ED50; for KB cytotoxicity compared with that reported for maytansine, maytanbutine and others: compared with Kupchan, J. Med. Chem. 21, Table II
# Method: The KB Cell Culture Screen used in guiding the above-described fractionations was conducted in accordance with the National Cancer Institute (NCI) Protocol 1.600 [Geran et al., Cancer Chemother. Rep., Part 3, 3: 17 (1972)] in which the effectiveness of the test compounds against cultivated cells of human epidermoid carcinoma of the mouth was evaluated. […] Such a dose is referred to as ED50 and activity is indicated for ED50 levels of ≤30 μg./ml. The smaller the ED50 level, the more cytotoxic the test material.
# [2] = system: lymphocytic leukemia P388; assay: PS system, lymphocytic leukemia P388 in mice, NCI Protocol 1.200, survival; assay type: in vivo; conditions: i.p. once a day for 9 days
# Method: Another indication of fraction activity is the effectiveness in the PS system against lymphocytic leukemia P388 in mice. These assays are conducted according to the NCI Protocol 1.200 described in Geran et al., supra. Starting 24 hours after the tumor implantation, previously determined doses of each compound were injected intraperitoneally once a day for 9 days. Survival time of treated leukemic mice is compared to that of untreated mice (T/C×100). A T/C value of 100% indicates no activity. A T/C value greater than 100% means that the treated mice are surviving longer than the control mice. A compound giving a T/C value greater than 125% is indicative of activity as defined by the NCI Protocols, above.
# B16 melanocarcinoma = assay: B1 system, B16 melanocarcinoma in mice, NCI Protocol 1.300; assay type: in vivo; conditions: i.p. once a day for 9 days, host sex M
# Method: The compounds were also evaluated in the B1 system against B16 melanocarcinoma in mice. This assay is conducted in accordance with the NCI Protocol 1.300 described in Geran et al., supra. Starting 24 hours after the tumor implantation, predetermined doses of the compound were injected intraperitoneally once a day for 9 days. The results are reported in Table VI below as the percent T/C.
# [3] = system: lymphocytic leukemia P388; conditions: cited from earlier work; for activity against lymphocytic leukemia P388: at the microgram per kilogram level, Wani et al.; for dosage level at which activity in the PS system was demonstrated: U.S. Pat. No. 4,313,946
# leukemia = conditions: Kupchan et al., J. Org. Chem. 42; cited from earlier work
# European corn borer = conditions: U.S. Pat. No. 4,315,929; cited from earlier work
# [4] = 4.00 μg./kg./inj., distilled water + alcohol, host sex M
# [5] = 8.00 μg./kg./inj., distilled water + alcohol, host sex M
# [6] = 16.00 μg./kg./inj., distilled water + alcohol, host sex M
# [7] = 32.00 μg./kg./inj., distilled water + alcohol, host sex M
# [8] = 4.00 μg./kg./inj., distilled water + alcohol
# [9] = 8.00 μg./kg./inj., distilled water + alcohol
# [10] = 16.00 μg./kg./inj., distilled water + alcohol
# [11] = 32.00 μg./kg./inj., distilled water + alcohol
smiles,measurement,setting,value
COc1cc2cc(c1Cl)N1CC(=O)C(C)(O)C(=O)N(C)C(C)C(=O)O[C@@H](CC1=O)[C@]1(C)O[C@H]1[C@H](C)[C@@H]1C[C@@](O)(NC(=O)O1)[C@H](OC)/C=C/C=C(\C)C2OC (some centres unmarked) [N-methyltrenudone],IC50,[1],< 10 ng/mL
same,T/C (%),[2]; [4],153%
same,T/C (%),[2]; [5],108%
same,T/C (%),[2]; [6],toxic
same,T/C (%),[2]; [7],toxic
same,T/C (%),B16 melanocarcinoma; [8],109%
same,T/C (%),B16 melanocarcinoma; [9],93%
same,T/C (%),B16 melanocarcinoma; [10],111%
same,T/C (%),B16 melanocarcinoma; [11],95%
COc1cc2cc(c1Cl)N(C)C(=O)C[C@H](OC(=O)[C@H](C)N(C)C(=O)C(C)C)[C@]1(C)O[C@H]1[C@H](C)[C@@H]1C[C@@](O)(NC(=O)O1)[C@H](OC)/C=C/C=C(\C)C2OC(C)=O (some centres unmarked) [colubrinol acetate],activity against lymphocytic leukemia P388,[3],demonstrated activity
COc1cc2cc(c1Cl)N(C)C(=O)C[C@H](OC(=O)[C@H](C)N(C)C(=O)C(C)C)[C@]1(C)O[C@H]1[C@H](C)[C@@H]1C[C@@](O)(NC(=O)O1)[C@H](OC)/C=C/C=C(\C)C2O (some centres unmarked) [colubrinol],activity against lymphocytic leukemia P388,[3],demonstrated activity
C=C(C)C(=O)N(C)[C@@H](C)C(=O)O[C@H]1CC(=O)N(C)c2cc(cc(OC)c2Cl)C(OC)/C(C)=C/C=C/[C@@H](OC)[C@@]2(O)C[C@H](OC(=O)N2)[C@@H](C)[C@@H]2O[C@@]12C (some centres unmarked) [dehydrotrewiasine],dosage level at which activity in the PS system was demonstrated,[3],4 µg/kg
COc1cc2cc(c1Cl)N(C)C(=O)C[C@H](OC(=O)C(C)C)[C@]1(C)O[C@H]1[C@H](C)[C@@H]1C[C@@](O)(NC(=O)O1)[C@H](OC)/C=C/C=C(\C)C2OC(C)=O (some centres unmarked) [maytanbutacine],antileukemic activity,leukemia,antileukemic principle
COc1cc2cc(c1Cl)N1CCC(C)(O)C(=O)NC(C)C(=O)O[C@@H](CC1=O)[C@]1(C)O[C@H]1[C@H](C)[C@@H]1C[C@@](O)(NC(=O)O1)[C@H](OC)/C=C/C=C(\C)C2OC (some centres unmarked) [treflorine],IC50,[1],0.27 ng/mL
same,"KB cytotoxicity compared with that reported for maytansine, maytanbutine and others",[1],at least one order of magitude less
same,T/C (%),[2]; [4],150%
same,T/C (%),[2]; [5],144%
same,T/C (%),[2]; [6],157%
same,T/C (%),[2]; [7],150%
same,T/C (%),B16 melanocarcinoma; [8],130%
same,T/C (%),B16 melanocarcinoma; [9],160%
same,T/C (%),B16 melanocarcinoma; [10],162%
same,T/C (%),B16 melanocarcinoma; [11],178%
COc1cc2cc(c1Cl)N1CC(O)C(C)(O)C(=O)NC(C)C(=O)O[C@@H](CC1=O)[C@]1(C)O[C@H]1[C@H](C)[C@@H]1C[C@@](O)(NC(=O)O1)[C@H](OC)/C=C/C=C(\C)C2OC (some centres unmarked) [trenudine],IC50,[1],0.64 ng/mL
same,"KB cytotoxicity compared with that reported for maytansine, maytanbutine and others",[1],at least one order of magitude less
same,T/C (%),"[2]; 2.00 μg./kg./inj., distilled water + alcohol, host sex F",144%
same,T/C (%),"[2]; 4.00 μg./kg./inj., distilled water + alcohol, host sex F",137%
same,T/C (%),"[2]; 8.00 μg./kg./inj., distilled water + alcohol, host sex F",146%
same,T/C (%),"[2]; 16.00 μg./kg./inj., distilled water + alcohol, host sex F",137%
same,T/C (%),"[2]; 32.00 μg./kg./inj., distilled water + alcohol, host sex F",toxic
same,T/C (%),"B16 melanocarcinoma; 1.00 μg./kg./inj., distilled water + alcohol",137%
same,T/C (%),"B16 melanocarcinoma; 2.00 μg./kg./inj., distilled water + alcohol",147%
same,T/C (%),B16 melanocarcinoma; [8],145%
same,T/C (%),B16 melanocarcinoma; [9],176%
same,T/C (%),B16 melanocarcinoma; [10],197%
same,T/C (%),B16 melanocarcinoma; [11],toxic
"COc1cc2cc(c1Cl)N(C)C(=O)C[C@H](OC(=O)[C@H](C)N(C)C(=O)C(C)C)[C@]1(C)O[C@H]1[C@H](C)[C@@H]1C[C@@](O)(NC(=O)O1)[C@H](OC)/C=C/C=C(\C)C2OC (some centres unmarked) [trewiasine, reference compound]",ED50,"[1]; dose that inhibits growth to 50% of control, 3 days after drug addition",0.2 ng/mL
same,T/C (%),"[2]; 4.00 μg./kg./inj., vehicle Klucel, host sex F",163%
same,T/C (%),"[2]; 8.00 μg./kg./inj., vehicle Klucel, host sex F",140%
same,T/C (%),"[2]; 16.00 μg./kg./inj., vehicle Klucel, host sex F",154%
same,T/C (%),"[2]; 32.00 μg./kg./inj., vehicle Klucel, host sex F",128%
same,T/C (%),"[2]; 64.00 μg./kg./inj., vehicle Klucel, host sex F",91%
same,T/C (%),"B16 melanocarcinoma; 1.00 μg./kg./inj., vehicle Klucel",133%
same,T/C (%),"B16 melanocarcinoma; 2.00 μg./kg./inj., vehicle Klucel",140%
same,T/C (%),"B16 melanocarcinoma; 4.00 μg./kg./inj., vehicle Klucel",157%
same,T/C (%),"B16 melanocarcinoma; 8.00 μg./kg./inj., vehicle Klucel",185%
same,T/C (%),"B16 melanocarcinoma; 16.00 μg./kg./inj., vehicle Klucel",172%
same,T/C (%),"B16 melanocarcinoma; 32.00 μg./kg./inj., vehicle Klucel",183%
same,dosage level at which activity in the PS system was demonstrated,[3],4 µg/kg
same,control of the European corn borer,European corn borer,effective in controlling the European corn borer
